Results from PMC7321161, “The Intriguing Effects of Substituents in the N-Phenethyl Moiety of Norhydromorphone: A Bifunctional Opioid from a Set of “Tail Wags Dog” Experiments” (Molecules, 2020).
Where “and” joins values, the source holds several entries; their conditions need not be identical. Identical values can stand only once. Entries after “also recorded” stand apart in the source; their conditions may differ. Like-named read-outs stand apart in the source and are kept apart here.

Experiments:
[1] = system: squirrel monkeys; test: Warm-water tail-withdrawal latency in squirrel monkeys; format: in vivo, Saimiri sciureus; details: for ED50: Saimiri, in Primates
[2] = target: T1, μ-opioid receptor (MOR) (Rattus norvegicus, UniProt P33535); test: Opioid receptor binding, μ sites ([3H]DAMGO), rat brain homogenate
T1 construct: Frozen whole rat brains excluding cerebellum were thawed on ice; from tissue; host or cells: whole rat brain excluding cerebellum, membrane homogenate

[3] = Squirrel monkey ventilation (whole-body plethysmograph, air or 5% CO2); format: in vivo, Saimiri sciureus; details: male, monkey, in vivo, other: injection; squirrel monkeys; dose required to decrease minute volume in 5% CO2 to 50% of baseline; read-out: ED50 Respiratory Depression
Description: (§1) Gas (either air or a 5% CO2 in air mixture) was introduced to and extracted from the chamber at a constant flow rate of 5 L/min. Experimental sessions consisted of 4–6 consecutive 30 min cycles, each comprising a 15 min exposure to air followed by a 15 min exposure to 5% CO2. Drug effects were determined using cumulative dosing procedures, and injections were administered following each exposure to 5% CO2. Respiratory rate and tidal volume (mL/breath) were recorded over 1 min periods and were multiplied to provide minute volumes. Data from the last three minutes of each exposure to air or CO2 were averaged and used for analysis of drug effects on ventilation.

[4] = system: squirrel monkeys; test: as above; format: in vivo, Saimiri sciureus
Description: as §1

[5] = target: T2, κ-opioid receptor (KOR) (Rattus norvegicus, UniProt P34975); test: Opioid receptor binding, κ sites ([3H]U69,593), rat brain homogenate; details: radioligand displacement at 100 nM
T2 construct: Frozen whole rat brains excluding cerebellum were thawed on ice; from tissue; host or cells: whole rat brain excluding cerebellum, membrane homogenate

[6] = target: T3, human μ-opioid receptor (OPRM1) (Homo sapiens, UniProt P35372); test: cell-based
T3 construct: host or cells: HitHunter CHO-K1 cells

[7] = target: T4, rat MOR (Rattus norvegicus, UniProt P33535); test: Stimulation of [35S]GTPγS binding, C6 glioma cell membranes expressing MOR; format: biochemical
T4 construct: expressed in transfected cells; host or cells: C6 rat glioma cells, stably transfected; membranes

[8] = system: Swiss Webster mice; test: Respiration rate and arterial oxygen saturation in mice (MouseOx pulse oximeter)
[9] = target: T5, human κ-opioid receptor (OPRK1) (Homo sapiens, UniProt P41145); test: cell-based
T5 construct: host or cells: HitHunter CHO-K1 cells

[10] = target: T6, δ-opioid receptor (DOR) (Rattus norvegicus, UniProt P33533); test: Opioid receptor binding, δ sites ([3H]DADLE), rat brain homogenate
T6 construct: Frozen whole rat brains excluding cerebellum were thawed on ice; from tissue; host or cells: whole rat brain excluding cerebellum, membrane homogenate

[11] = target: T7, human μ-opioid receptor β-arrestin-2 (Homo sapiens, UniProt P35372); test: cell-based
T7 construct: enzyme fragment for EFC (β-galactosidase ProLink fragment, by own knowledge of the PathHunter system); host or cells: PathHunter CHO cells

[12] = target: T8, rat DOR (Rattus norvegicus, UniProt P33533); test: Stimulation of [35S]GTPγS binding, C6 glioma cell membranes expressing DOR; format: biochemical
T8 construct: expressed in transfected cells; host or cells: C6 rat glioma cells, stably transfected; membranes

[13] = Operant responding (FR10 food reinforcement) in squirrel monkeys; details: male, monkey, in vivo
[14] = system: squirrel monkeys; test: as above; details: squirrel monkeys
[15] = target: T9, human δ-receptor (OPRMD1) (Homo sapiens, UniProt P41143); test: cell-based; format: cell-based
T9 construct: host or cells: HitHunter CHO-K1 cells
T9 sequence (P41143 whole entry): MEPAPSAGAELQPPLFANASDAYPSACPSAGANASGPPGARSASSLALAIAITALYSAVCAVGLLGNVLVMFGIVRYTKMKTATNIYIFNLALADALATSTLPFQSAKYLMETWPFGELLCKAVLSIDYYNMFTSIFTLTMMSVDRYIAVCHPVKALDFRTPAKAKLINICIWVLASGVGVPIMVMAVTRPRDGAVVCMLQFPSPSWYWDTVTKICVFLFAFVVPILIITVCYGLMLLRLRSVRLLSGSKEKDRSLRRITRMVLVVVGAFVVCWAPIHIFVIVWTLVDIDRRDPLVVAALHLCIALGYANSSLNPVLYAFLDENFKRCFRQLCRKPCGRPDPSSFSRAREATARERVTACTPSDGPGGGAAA

T5 sequence (P41145 whole entry): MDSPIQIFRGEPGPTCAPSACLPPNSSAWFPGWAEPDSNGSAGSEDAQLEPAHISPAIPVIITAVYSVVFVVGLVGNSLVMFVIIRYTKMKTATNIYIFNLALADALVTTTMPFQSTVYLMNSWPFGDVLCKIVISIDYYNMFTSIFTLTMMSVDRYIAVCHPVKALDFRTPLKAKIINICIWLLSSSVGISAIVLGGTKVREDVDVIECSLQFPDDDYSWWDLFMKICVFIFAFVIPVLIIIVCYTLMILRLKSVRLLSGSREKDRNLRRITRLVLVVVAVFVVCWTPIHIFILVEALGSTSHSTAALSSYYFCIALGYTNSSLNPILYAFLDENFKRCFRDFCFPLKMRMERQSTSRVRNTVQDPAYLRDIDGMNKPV
T4 sequence (P33535 whole entry): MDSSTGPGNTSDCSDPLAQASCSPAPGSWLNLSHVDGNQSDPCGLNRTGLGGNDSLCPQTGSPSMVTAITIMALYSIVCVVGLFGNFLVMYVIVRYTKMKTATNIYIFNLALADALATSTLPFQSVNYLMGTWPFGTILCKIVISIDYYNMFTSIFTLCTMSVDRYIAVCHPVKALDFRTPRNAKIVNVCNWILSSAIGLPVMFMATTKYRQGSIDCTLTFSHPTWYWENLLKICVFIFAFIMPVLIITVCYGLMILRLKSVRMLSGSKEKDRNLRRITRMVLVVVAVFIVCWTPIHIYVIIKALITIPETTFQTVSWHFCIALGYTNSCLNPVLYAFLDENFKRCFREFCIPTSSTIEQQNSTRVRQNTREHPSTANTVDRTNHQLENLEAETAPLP
T7 sequence (P35372 whole entry, the tested form may be a part): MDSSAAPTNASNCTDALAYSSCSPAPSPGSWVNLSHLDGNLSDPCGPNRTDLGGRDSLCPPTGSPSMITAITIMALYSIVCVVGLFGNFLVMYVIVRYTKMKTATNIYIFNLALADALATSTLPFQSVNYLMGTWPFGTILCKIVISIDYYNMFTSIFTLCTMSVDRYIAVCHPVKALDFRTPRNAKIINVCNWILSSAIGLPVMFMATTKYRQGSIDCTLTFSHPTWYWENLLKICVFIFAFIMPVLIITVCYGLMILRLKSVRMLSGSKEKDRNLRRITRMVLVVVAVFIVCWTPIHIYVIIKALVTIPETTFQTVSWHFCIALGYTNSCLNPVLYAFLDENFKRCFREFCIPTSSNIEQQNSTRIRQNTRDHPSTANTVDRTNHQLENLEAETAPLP
T8 sequence (P33533 whole entry): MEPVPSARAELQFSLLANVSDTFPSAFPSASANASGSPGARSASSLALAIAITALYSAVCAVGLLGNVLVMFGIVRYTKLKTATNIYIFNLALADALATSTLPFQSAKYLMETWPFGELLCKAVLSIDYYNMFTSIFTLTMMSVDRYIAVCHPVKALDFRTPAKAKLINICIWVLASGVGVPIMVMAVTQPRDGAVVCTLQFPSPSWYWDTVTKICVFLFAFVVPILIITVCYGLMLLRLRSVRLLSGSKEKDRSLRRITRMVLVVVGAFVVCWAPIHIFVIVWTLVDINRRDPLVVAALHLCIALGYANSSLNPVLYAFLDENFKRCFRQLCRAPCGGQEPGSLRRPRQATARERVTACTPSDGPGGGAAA
T3 sequence (P35372 whole entry): as the sequence (P35372 whole entry, the tested form may be a part) above
T6 sequence (P33533 whole entry): as the sequence (P33533 whole entry) above
T2 sequence (P34975 whole entry): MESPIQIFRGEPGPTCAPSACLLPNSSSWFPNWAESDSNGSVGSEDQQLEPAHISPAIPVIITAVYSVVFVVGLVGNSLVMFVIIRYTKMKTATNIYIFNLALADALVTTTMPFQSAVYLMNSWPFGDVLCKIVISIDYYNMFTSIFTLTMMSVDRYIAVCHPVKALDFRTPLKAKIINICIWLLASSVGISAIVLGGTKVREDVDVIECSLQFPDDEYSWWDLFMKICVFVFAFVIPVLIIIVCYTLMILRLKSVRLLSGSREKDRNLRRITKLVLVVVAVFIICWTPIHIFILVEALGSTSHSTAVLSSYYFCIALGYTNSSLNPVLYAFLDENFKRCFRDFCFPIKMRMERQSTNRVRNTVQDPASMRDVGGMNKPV
T1 sequence (P33535 whole entry): as the sequence (P33535 whole entry) above

O=C1CCC2C3Cc4ccc(O)c5c4[C@@]2(CCN3CCc2ccc(Cl)cc2)[C@H]1O5 (stereo partly drawn) [Compound 2i, (7aR,12bS)-3-(4-Chlorophenethyl)-9-hydroxy-2,3,4,4a,5,6-hexahydro-1H-4,12-methanobenzofuro[3,2-e]-isoquinolin-7(7aH)-one]
ED50 ([1]; dose required to increase tail withdrawal latency to 5 s, read-out: ED50 Antinociception (52 °C)): 0.015 mg/kg | ED50 ([1]; read-out: ED50 Antinociception (50 °C), tail withdrawal, 50 °C water): 0.01 mg/kg | Antinociceptive effect, tail withdrawal latency at 50, 52 and 55 °C ([1]; cumulative doses): full effect at moderate (50 °C) and hot (52 °C) but not at very hot (55 °C) water temperatures | Ki [2]: 1.09 ± 0.06 nM | ED50 [3]: 0.057 mg/kg | Effect on ventilation (minute volume) during exposure to 5% CO2 mixed in air (hypercapnia) [4]: significantly reduced minute volume in 5% CO2; also recorded: respiration was depressed; also recorded: significantly decreased ventilation | Effect on respiratory rate or ventilation (minute volume) during exposure to air alone ([4]; 2i 0.003–0.1 mg/kg, morphine 0.03–3.0 mg/kg): did not depress respiration; also recorded: neither 2i (0.003–0.1 mg/kg) nor morphine (0.03–3.0 mg/kg) had effects | KOR Binding, exploratory binding assay [5]: NT (NT = not tested—inactive (<50% activity at 100 nM concentration in exploratory binding assays (displaced less than half of radioligand)) | EC50 ([6]; MOR cAMP Agonist Potency ± SEM): 0.05 nM | Emax ([6]; OPRM1, read-out: MOR cAMP % Efficacy): 98.8% | EC50 [7]: 2 ± 1 nM | MOR activity type in the [35S]GTPγS assay ([7]; antagonist activity assumed from high MOR affinity and lack of stimulation): potent partial MOR agonist | MOR % Stimulation, [35S]GTPγS ([7]; compared to standard maximal DAMGO): 39.0 ± 2.1% | Effect on oxygen saturation (SpO2) in mice ([8]; 6 min to 45 min post-injection, data not shown): neither morphine nor 2i had any effect | Effect on respiration rate in mice ([8]; normal air, s.c., 2i 0.01–0.1 mg/kg, morphine 10 mg/kg, AUC 6–45 min post injection, vs saline): did not depress respiration rate; also recorded: no effect on respiration rate | Emax ([9]; CHO-K1, read-out: KOR cAMP % Efficacy): 76.6% | EC50 ([9]; KOR cAMP Agonist Potency ± SEM): 55 nM and 55.2 nM | Ki [10]: 7.89 ± 1.1 nM | δ/μ ratio in opioid receptor binding studies ([10]; DOR Ki / MOR Ki): about 7 | Bias Factor [11]: 0.82 | EC50 [11]: 2.44 nM | Emax ([11]; read-out: MOR Mediated β-arrestin Recruitment (% Control, Emax DAMGO)): 44.8% | DOR activity type in the [35S]GTPγS assay [12]: potent full DOR agonist | EC50 ([12]; DOR EC50, [35S]GTPγS, C6 cells expressing DOR, mean ± SEM): 2.4 ± 0.7 nM | DOR % Stimulation, [35S]GTPγS ([12]; compared to standard maximal DPDPE): 83.8 ± 3.7% | ED50 [13]: 0.022 mg/kg | Behavioral impairment (decreases in operant performance, reinforcers obtained) [14]: dose-related behavioral impairment | EC50 δ/μ ratio in the cAMP assay [15]: 10 | Emax ([15]; CHO-K1, read-out: DOR cAMP % Efficacy): 84.8% | EC50 ([15]; DOR cAMP Agonist Potency ± SEM): 0.53 nM
